Experimental data published in patent publication US20240299481A1, “STEPHANIA CEPHARANTHA-DERIVED ALKALOID-CONTAINING PREPARATION” (JAPAN AS REPRESENTED BY DIRECTOR-GENERAL OF NATIONAL …, priority 2021, published 2024).

The compounds below were run on novel coronavirus mutant strain (alpha mutant strain).
Format: cell-based, SARS-COV-2
In the case of `COc1cc2c3cc1Oc1c(OC)c(OC)cc4c1[C@@H](Cc1ccc(O)c(c1)Oc1ccc(cc1)C[C@@H]3N(C)CC2)N(C)CC4` [Berbamine], the “antiviral effect (number of viral RNA with increasing addition concentration)” value is reported as “showed antiviral effects” and the “antiviral effect compared with the preparation / other alkaloids” value is reported as “weak antiviral effect”. For `COc1ccc2cc1Oc1ccc(cc1)C[C@H]1c3cc(c(OC)cc3CCN1C)Oc1c(OC)c(OC)cc3c1[C@@H](C2)N(C)CC3` [Isotetrandrine], the “antiviral effect (number of viral RNA with increasing addition concentration)” value was “showed antiviral effects” and the “antiviral effect compared with the preparation / other alkaloids” value was “comparable to the Stephania cepharantha-derived alkaloid-containing preparation”. With `COc1ccc2cc1Oc1ccc(cc1)C[C@H]1c3c(cc4c(c3Oc3cc5c(cc3OC)CCN(C)[C@@H]5C2)OCO4)CCN1C` [Cepharanthine] the “antiviral effect (number of viral RNA with increasing addition concentration)” value was “showed antiviral effects” and the “antiviral effect compared with the preparation / other alkaloids” value was “comparable to the Stephania cepharantha-derived alkaloid-containing preparation”. In the case of `COc1cc2c3c(c1OC)Oc1ccc(cc1)C[C@@H]1c4c(cc(OC)c(OC)c4Oc4ccc(cc4)C[C@H]3N(C)CC2)CCN1C` [Cycleanine], the “antiviral effect (number of viral RNA with increasing addition concentration)” value is reported as “showed antiviral effects” and the “antiviral effect compared with the preparation / other alkaloids” value is reported as “comparable to the Stephania cepharantha-derived alkaloid-containing preparation”.
